Reference: ChEMBL document CHEMBL4177731, “Synthesis, in vitro α-glucosidase inhibitory activity and docking studies of novel chromone-isatin derivatives” (Bioorg Med Chem Lett, 2018)

Assay: Inhibition of Saccharomyces cerevisiae alpha-glucosidase pre-incubated for 15 mins before p-nitrophenyl alpha-D-glucopyranoside substrate addition and measured after 30 mins by spectrophotometry

Structure (SMILES)	IC50
O=C1/C(=N\N=C\c2coc3ccccc3c2=O)c2ccccc2N1Cc1cccc(F)c1	16 µM
O=C1/C(=N\N=C\c2coc3ccccc3c2=O)c2ccccc2N1Cc1ccccc1Cl	13.5 µM
O=C1/C(=N\N=C\c2coc3cc(O)ccc3c2=O)c2ccccc2N1Cc1ccccc1Cl	5.51 µM
O=C1/C(=N\N=C\c2coc3cc(O)ccc3c2=O)c2ccccc2N1Cc1ccc(F)cc1	3.82 µM
O=C1Nc2ccccc2/C1=N/N=C/c1coc2ccccc2c1=O	16.2 µM
CN1C(=O)/C(=N\N=C\c2coc3ccccc3c2=O)c2ccccc21	11.8 µM
O=C1/C(=N\N=C\c2coc3cc(O)ccc3c2=O)c2ccccc2N1Cc1ccc(Br)cc1	3.18 µM
O=C1/C(=N\N=C\c2coc3cc(O)ccc3c2=O)c2ccccc2N1Cc1ccc(Cl)cc1Cl	4.25 µM
O=C1/C(=N\N=C\c2coc3cc(O)ccc3c2=O)c2ccccc2N1Cc1ccccc1Br	4.73 µM
O=C1/C(=N\N=C\c2coc3ccccc3c2=O)c2ccccc2N1Cc1ccc(F)cc1	9.8 µM
O=C1/C(=N\N=C\c2coc3ccccc3c2=O)c2ccccc2N1Cc1ccccc1F	14 µM
O=C1/C(=N\N=C\c2coc3cc(O)ccc3c2=O)c2ccccc2N1Cc1ccccc1F	4.57 µM
O=C1/C(=N\N=C\c2coc3ccccc3c2=O)c2ccccc2N1Cc1ccc(Cl)cc1	16.6 µM
O=C1/C(=N\N=C\c2coc3ccccc3c2=O)c2ccccc2N1Cc1ccc(Br)cc1	8.17 µM
O=C1/C(=N\N=C\c2coc3cc(O)ccc3c2=O)c2ccccc2N1Cc1ccc(Cl)cc1	3.9 µM
O=C1/C(=N\N=C\c2coc3cc(O)ccc3c2=O)c2ccccc2N1Cc1cccc(F)c1	4.17 µM
